Measurements as given in publication PMC8000919, “Validation of an LC-MS/MS Method to Quantify the New TRPC6 Inhibitor SH045 (Larixyl N-methylcarbamate) and Its Application in an Exploratory Pharmacokinetic Study in Mice” (Pharmaceuticals, 2021).
Where two headings read alike, the source gives them in different places.

How the values were obtained:
[1] = Exploratory plasma pharmacokinetics in mice after single i.p. administration, non-compartmental analysis; format: in vivo
Experimental: The practicability of the validated method for SH045 quantification was verified in a first exploratory pharmacokinetic study in mice. Male C57BL/6 mice (25–30 g body weight, Charles River, Sulzfeld, Germany) were housed in groups under standard conditions, allowed access to lab chow and water ad libitum. Animal experiments were performed according to the national regulations of animal welfare and were ethically approved by the local committee on animal welfare and the local authorities. Animal experiments were performed under strict consideration of the 3R principles (replace, reduce, refine), fully complying with the ARRIVE guidelines.
Solutions of SH045 for i.p. administration were prepared with DMSO (final concentration 0.5%) and Kolliphor® EL (5% in water). SH045 was administered i.p. as a single dose of 20 mg/kg body weight. Blood was collected from mice tail vein at 5, 15, 30, 60, 120, 180 and 360 min after administration via heparinized catheters. After centrifugation at 4000× g at 4 °C for 10 min, plasma was stored at −80 °C until analysis.
For sample preparation, 20 µL of thawed plasma were mixed with 2 µL of IS (50 µg/mL), vortexed for 30 s, added with 178 µL ice-cold ACN and shaken vigorously for 5 min. After centrifugation at 104,000× g for 15 min, the supernatant was filtered through a 0.2 µm pore-size syringe filter (Phenex-RC 4 mm, Phenomenex, Aschaffenburg, Germany) and stored in the autosampler at 6 °C until analysis by LC-MS/MS, as mentioned above.
The evaluation of basic pharmacokinetic parameters of SH045 (20 mg/kg, i.p.) following a single dose was performed by non-compartmental analysis using a commercially available software program Kinetica, version 5.1 (Thermo Fisher Scientific, Waltham, MA, USA). The Cmax and Tmax were obtained directly from the plasma concentration-time curve. The slope of the terminal phase of the SH045 concentration profile (ʎz) was estimated as absolute values from >4 data points using a log-linear regression analysis.
The area under the plasma concentration-time curve (AUC) for the time (t) providing the final measurable concentration (AUClast) was calculated using the log-linear trapezoidal rule.
The AUC0–∞ was then determined as AUClast + Clast/ʎz, where Clast is the last measurable concentration. The systemic total body clearance from plasma (CLp) was calculated as applied dose divided by AUC0–∞. MRT was calculated as AUMC0–∞/AUC0–∞, where area under the first-moment curve (AUMC) was defined as area under the curve of the product of time and the plasma drug concentration versus time from zero to infinity.
The volume of distribution, VZ, was calculated as CLp/ʎz. Finally, the AUCextra extrapolates the AUC from the last measured time point to infinity.

[2] = Plasma protein binding (PPB) by ultrafiltration; format: in vitro ADME; details: mouse plasma
Experimental: PPB of SH045 in mice plasma was determined at two concentrations, 100 and 800 ng/mL, using ultrafiltration. For that, 2 µL of working solutions of SH045 in DMSO (final concentration […]) were mixed with 298 µL blank plasma and incubated at 37 °C for 30 min. To determine the total concentration of SH045, 60 µL sample were taken out. The remaining 240 µL of spiked plasma were transferred to a centrifugal filter (Centrifugal Filter Units, 30 kDa cut-off, Millipore, County Cork, Ireland) and centrifuged at room temperature for 10 min at 1000× g. The filtrates were analyzed for the unbound SH045. The PPB was calculated as PPB (%) = (Ct − Cf)/Ct × 100, with Ct as total SH045 concentration in spiked plasma and Cf as unbound SH045 concentration in the filtrate.

[3] = Stability in stock and working solutions; format: physicochemical; details: nominal 1000 ng/mL
Experimental: Analytic stock solutions of SH045 and of IS (1 mg/mL each) were prepared in ACN and stored at −20 °C. Working solutions of SH045 and of IS (50 µg/mL) were freshly prepared by dilution with water/ACN 1:1 (v/v). Calibration and QC samples were prepared by addition of 2 μL SH045 working solutions and 2 μL IS solution to 18 μL of blank plasma, further processed identically to the preparation of plasma (see below). Freshly prepared calibration samples for SH045 in plasma comprised eight concentration levels analyzed in duplicates (2, 5, 10, 100, 200, 800, 1200 and 1600 ng/mL).
The stability of SH045 and IS in stock solutions stored at −20 °C for 28 days and in working solutions stored at 4 °C for 12 h was determined comparing the analyzed with the nominal concentration and accepted when accuracy was within 15%.

[4] = Stability in plasma QC samples under storage conditions; format: physicochemical, mice; details: for Stability in autosampler, Accuracy / Stability in autosampler, Mean ± SEM: extracted plasma QC samples, 6 °C; for Stability in autosampler, Accuracy / Stability in autosampler, Mean ± SEM / Freeze and thaw stability, Accuracy / Freeze and thaw stability, Mean ± SEM: 12 h; for Short-term stability, Accuracy / Short-term stability, Mean ± SEM / Freeze and thaw stability, Accuracy / Freeze and thaw stability, Mean ± SEM / Long-term stability, Accuracy / Long-term stability, Mean ± SEM: plasma QC samples; for Short-term stability, Accuracy / Short-term stability, Mean ± SEM: 25 °C, 4 h; for Freeze and thaw stability, Accuracy / Freeze and thaw stability, Mean ± SEM / Long-term stability, Accuracy / Long-term stability, Mean ± SEM: −20 °C; for Freeze and thaw stability, Accuracy / Freeze and thaw stability, Mean ± SEM: 3 cycles; for Long-term stability, Accuracy / Long-term stability, Mean ± SEM: 30 days
Experimental: […] The accuracy of the mean concentration at each of the three QC levels was accepted within ±15% of nominal concentration. All stability experiments were carried out in three replicates.

TRPC6 [5] = test system: TRPC6; parameters: method as in PMID 29522264; details: patch-clamp recordings; read-out: IC50 to block inward currents; cited from earlier work
TRPC6 [6] = test system: TRPC6; parameters: method as in PMID 29522264; details: stably TRPC6-transfected HEK293 cells; read-out: IC50 to inhibit Ca2+ influx; cited from earlier work
TRPC3 = test system: TRPC3; parameters: method as in PMID 29522264; details: TRPC6 over TRPC3; cited from earlier work
[7] = test system: TRPC3/6 channels of rat PASMC; parameters: method as in PMID 29522264; details: 1-oleyl-2-acetyl-sn-glycerol (OAG)-induced; cited from earlier work
[8] = test system: ischemic lungs explanted from mice; parameters: method as in PMID 29522264; details: ex vivo model of LIRE; cited from earlier work
[9] = male, C57BL/6, mouse, ip, mice plasma, single dose 20 mg/kg body weight
[10] = stock solution, −20 °C, 28 days

- plasma concentration relative to IC50 for Ca2+ influx ([1]; five hours after administration of 20 mg/kg): at least two-fold higher
- AUC(0-inf) [1, 9]: 1470 ng·h/mL
- AUC(0-t) [1, 9]: 1410 ng·h/mL
- Cmax [1, 9]: 756 ng/mL
- MRT [1, 9]: 1.9 h
- Tmax [1, 9]: 0.5 h
- half-life ([1]; male, C57BL/6, mouse, plasma, ip, 20 mg/kg, mice plasma, single dose 20 mg/kg body weight): 1.3 h
- T1/2 ([1]; mice plasma, single dose 20 mg/kg body weight, i.p., 20 mg/kg): 1.31 h
- % AUC (AUCextra as percent) ([1]; mice plasma, single dose 20 mg/kg i.p., extrapolated part of AUC): 4.3%
- fraction unbound at 30 min, 100 ng/mL ([2]; 100 ng/mL SH045, ultrafiltration): 0.022
- fraction unbound at 30 min, 800 ng/mL ([2]; 800 ng/mL SH045, ultrafiltration): 0.003
- Stability, Accuracy [3, 10]: 106.6%
- Stability, Mean ± SEM [3, 10]: 1066 ± 9 ng/mL
- Stability, Accuracy ([3]; working solution, 4 °C, 12 h): 103.7%
- Stability, Mean ± SEM ([3]; working solution, 4 °C, 12 h): 1037 ± 10 ng/mL
- Stability in autosampler, Accuracy ([4]; nominal 5 ng/mL): 99.0%
- Stability in autosampler, Mean ± SEM ([4]; nominal 5 ng/mL): 5.0 ± 0.2 ng/mL
- Stability in autosampler, Accuracy ([4]; nominal 800 ng/mL): 100.8%
- Stability in autosampler, Mean ± SEM ([4]; nominal 800 ng/mL): 807 ± 28 ng/mL
- Stability in autosampler, Accuracy ([4]; nominal 1200 ng/mL): 104.7%
- Stability in autosampler, Mean ± SEM ([4]; nominal 1200 ng/mL): 1256 ± 50 ng/mL
- Short-term stability, Accuracy ([4]; nominal 5 ng/mL): 107.6%
- Short-term stability, Mean ± SEM ([4]; nominal 5 ng/mL): 5.4 ± 0.1 ng/mL
- Short-term stability, Accuracy ([4]; nominal 800 ng/mL): 101.9%
- Short-term stability, Mean ± SEM ([4]; nominal 800 ng/mL): 816 ± 2 ng/mL
- Short-term stability, Accuracy ([4]; nominal 1200 ng/mL): 98.8%
- Short-term stability, Mean ± SEM ([4]; nominal 1200 ng/mL): 1186 ± 36 ng/mL
- Freeze and thaw stability, Accuracy ([4]; nominal 5 ng/mL): 97.2%
- Freeze and thaw stability, Mean ± SEM ([4]; nominal 5 ng/mL): 4.9 ± 0.2 ng/mL
- Freeze and thaw stability, Accuracy ([4]; nominal 800 ng/mL): 90.1%
- Freeze and thaw stability, Mean ± SEM ([4]; nominal 800 ng/mL): 721 ± 8 ng/mL
- Freeze and thaw stability, Accuracy ([4]; nominal 1200 ng/mL): 90.2%
- Freeze and thaw stability, Mean ± SEM ([4]; nominal 1200 ng/mL): 1083 ± 41 ng/mL
- Long-term stability, Accuracy ([4]; nominal 5 ng/mL): 107.3%
- Long-term stability, Mean ± SEM ([4]; nominal 5 ng/mL): 5.4 ± 0.3 ng/mL
- Long-term stability, Accuracy ([4]; nominal 800 ng/mL): 95.4%
- Long-term stability, Mean ± SEM ([4]; nominal 800 ng/mL): 763 ± 9 ng/mL
- Long-term stability, Accuracy ([4]; nominal 1200 ng/mL): 99.9%
- Long-term stability, Mean ± SEM ([4]; nominal 1200 ng/mL): 1199 ± 29 ng/mL
Structure (SMILES): C=C[C@@](C)(O)CC[C@H]1C(=C)C[C@H](OC(=O)NC)[C@H]2C(C)(C)CCC[C@]12C [SH045, (1S,4S,4aR,8aS)-4-((S)-3-Hydroxy-3-methylpent-4-en-1-yl)-4a,8,8-trimethyl-3-methylenedecahydronaphthalen-1-yl methylcarbamate]
- IC50 (TRPC6 [5]): 5.8 nM
- IC50 (TRPC6 [6]): 63 nM
- subtype selectivity over TRPC3 (TRPC3): 13 fold
- effect on OAG-induced Ca2+ entry [7]: inhibited
- edema formation after reperfusion [8]: reduced edema formation
